From PubChem BioAssay (NCI)
Values after ≈ are worked out from the molar mass of the structure shown.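 Dose response: 5 concentrations. Exposure: 48 h. Format: 96-well plates. Endpoint: linear interpolation; highest concentration if not reached. GI50 marks 50% less growth. TGI marks complete inhibition of growth.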

What was measured:
Assay in all cases: DTP human tumour cell line panel, 48 h
HOP-92 NSCLC = system: HOP-92 NSCLC
NCI/ADR-RES ovarian = system: NCI/ADR-RES ovarian
MDA-MB-231 breast = system: MDA-MB-231 breast
COLO 205 colon = system: COLO 205 colon
SK-MEL-28 melanoma = system: SK-MEL-28 melanoma
HS 578T breast = system: HS 578T breast
T-47D breast = system: T-47D breast
DU-145 prostate = system: DU-145 prostate
CCRF-CEM leukemia = system: CCRF-CEM leukemia
A549 NSCLC = system: A549 NSCLC
UACC-62 melanoma = system: UACC-62 melanoma
SK-MEL-5 melanoma = system: SK-MEL-5 melanoma
NCI-H522 lung = system: NCI-H522 lung
UO-31 renal = system: UO-31 renal
K-562 leukemia = system: K-562 leukemia
SN12C renal = system: SN12C renal
CAKI-1 renal = system: CAKI-1 renal
MDA-MB-435 = system: MDA-MB-435
SF-268 CNS = system: SF-268 CNS
UACC-257 melanoma = system: UACC-257 melanoma
SK-MEL-2 melanoma = system: SK-MEL-2 melanoma
OVCAR-8 ovarian = system: OVCAR-8 ovarian
RPMI-8226 leukemia = system: RPMI-8226 leukemia
HCT-116 colon = system: HCT-116 colon
NCI-H23 lung = system: NCI-H23 lung
NCI-H460 lung = system: NCI-H460 lung
IGROV1 ovarian = system: IGROV1 ovarian
HT29 colon = system: HT29 colon
M14 melanoma = system: M14 melanoma
RXF 393 renal = system: RXF 393 renal
786-0 renal = system: 786-0 renal
MOLT-4 leukemia = system: MOLT-4 leukemia
PC-3 prostate = system: PC-3 prostate
TK-10 renal = system: TK-10 renal
HL-60(TB) leukemia = system: HL-60(TB) leukemia
MCF7 breast = system: MCF7 breast
SF-295 CNS = system: SF-295 CNS
HCC-2998 colon = system: HCC-2998 colon
KM12 colon = system: KM12 colon
SF-539 CNS = system: SF-539 CNS
OVCAR-5 ovarian = system: OVCAR-5 ovarian
OVCAR-3 ovarian = system: OVCAR-3 ovarian
SNB-19 CNS = system: SNB-19 CNS
NCI-H226 lung = system: NCI-H226 lung
HOP-62 NSCLC = system: HOP-62 NSCLC
SR leukemia = system: SR leukemia
A498 renal = system: A498 renal
BT-549 breast = system: BT-549 breast
OVCAR-4 ovarian = system: OVCAR-4 ovarian
SNB-75 CNS = system: SNB-75 CNS
SW-620 colon = system: SW-620 colon
SK-OV-3 ovarian = system: SK-OV-3 ovarian

COc1cc(/C=C2\C[C@H]3[C@@H]4CC=C5C[C@@H](OC(C)=O)CC[C@]5(C)[C@H]4CC[C@]3(C)[C@H]2OC(C)=O)ccc1OCCN1CCCC1
GI50 (HOP-92 NSCLC): 5.45 µM
TGI (HOP-92 NSCLC): 13.4 µM
GI50 (NCI/ADR-RES ovarian): 10.2 µM
TGI (NCI/ADR-RES ovarian): 20.6 µM
GI50 (MDA-MB-231 breast): 9.01 µM
TGI (MDA-MB-231 breast): 17 µM
GI50 (COLO 205 colon): 13.3 µM
TGI (COLO 205 colon): > 50 µM
GI50 (SK-MEL-28 melanoma): 12.8 µM
TGI (SK-MEL-28 melanoma): > 50 µM
GI50 (HS 578T breast): 9.32 µM
TGI (HS 578T breast): 18.8 µM
GI50 (T-47D breast): 12.4 µM
TGI (T-47D breast): 32 µM
GI50 (DU-145 prostate): 1.3 µM
TGI (DU-145 prostate): 9.69 µM
GI50 (CCRF-CEM leukemia): 0.935 µM
TGI (CCRF-CEM leukemia): 18.8 µM
GI50 (A549 NSCLC): 10.9 µM
TGI (A549 NSCLC): 21.6 µM
GI50 (UACC-62 melanoma): 9.48 µM
TGI (UACC-62 melanoma): 17.5 µM
GI50 (SK-MEL-5 melanoma): 6.97 µM
TGI (SK-MEL-5 melanoma): 15.1 µM
GI50 (NCI-H522 lung): 18.1 µM
TGI (NCI-H522 lung): > 50 µM
GI50 (UO-31 renal): 13.1 µM
TGI (UO-31 renal): 28.9 µM
GI50 (K-562 leukemia): 4 µM
TGI (K-562 leukemia): 12.6 µM
GI50 (SN12C renal): 7.79 µM
TGI (SN12C renal): 15.7 µM
GI50 (CAKI-1 renal): 12 µM
TGI (CAKI-1 renal): 25.6 µM
GI50 (MDA-MB-435): 13.3 µM
TGI (MDA-MB-435): 27.2 µM
GI50 (SF-268 CNS): 8.94 µM
TGI (SF-268 CNS): 18.8 µM
GI50 (UACC-257 melanoma): 10.8 µM
TGI (UACC-257 melanoma): 20.1 µM
GI50 (SK-MEL-2 melanoma): 20.2 µM
TGI (SK-MEL-2 melanoma): > 50 µM
GI50 (OVCAR-8 ovarian): 10.3 µM
TGI (OVCAR-8 ovarian): 21.4 µM
GI50 (RPMI-8226 leukemia): 1.07 µM
TGI (RPMI-8226 leukemia): 13.4 µM
GI50 (HCT-116 colon): 10.5 µM
TGI (HCT-116 colon): 30.7 µM
GI50 (NCI-H23 lung): 10.1 µM
TGI (NCI-H23 lung): 19 µM
GI50 (NCI-H460 lung): 10.2 µM
TGI (NCI-H460 lung): 23.1 µM
GI50 (IGROV1 ovarian): 19.3 µM
TGI (IGROV1 ovarian): > 50 µM
GI50 (HT29 colon): 11.7 µM
TGI (HT29 colon): > 50 µM
GI50 (M14 melanoma): 8.56 µM
TGI (M14 melanoma): 30.4 µM
GI50 (RXF 393 renal): 14.6 µM
TGI (RXF 393 renal): 30.8 µM
GI50 (786-0 renal): 8.82 µM
TGI (786-0 renal): 18.3 µM
GI50 (MOLT-4 leukemia): 10.7 µM
TGI (MOLT-4 leukemia): > 50 µM
GI50 (PC-3 prostate): 8 µM
TGI (PC-3 prostate): 20.4 µM
GI50 (TK-10 renal): 9.07 µM
TGI (TK-10 renal): 19.7 µM
GI50 (HL-60(TB) leukemia): 10.3 µM
TGI (HL-60(TB) leukemia): 20.6 µM
GI50 (MCF7 breast): 11.1 µM
TGI (MCF7 breast): 29.6 µM
GI50 (SF-295 CNS): 12.6 µM
TGI (SF-295 CNS): 25.4 µM
GI50 (HCC-2998 colon): 8.01 µM
TGI (HCC-2998 colon): 15.4 µM
GI50 (KM12 colon): 8.81 µM
TGI (KM12 colon): 17.7 µM
GI50 (SF-539 CNS): 8.7 µM
TGI (SF-539 CNS): 17.3 µM
GI50 (OVCAR-5 ovarian): 10 µM
TGI (OVCAR-5 ovarian): 20.1 µM
GI50 (OVCAR-3 ovarian): 10.9 µM
TGI (OVCAR-3 ovarian): 23.6 µM
GI50 (SNB-19 CNS): 10.9 µM
TGI (SNB-19 CNS): 22.5 µM
GI50 (NCI-H226 lung): 9.67 µM
TGI (NCI-H226 lung): 18.6 µM
GI50 (HOP-62 NSCLC): 9.43 µM
TGI (HOP-62 NSCLC): 20.5 µM

CC(C)CCCC(C)[C@H]1CC[C@H]2N=C(NCc3ccccc3)CCC[C@]12C (stereo partly drawn)
TGI (HOP-92 NSCLC): 5.67 µM
TGI (NCI/ADR-RES ovarian): 3.15 µM
TGI (COLO 205 colon): 2.77 µM
TGI (SK-MEL-28 melanoma): 2.96 µM
TGI (SR leukemia): 7.84 µM
TGI (A498 renal): 4.77 µM
TGI (HS 578T breast): 9.48 µM
TGI (T-47D breast): 8.01 µM
TGI (CCRF-CEM leukemia): 5.42 µM
TGI (UACC-62 melanoma): 3.48 µM
TGI (SK-MEL-5 melanoma): 3.06 µM
TGI (UO-31 renal): 8.29 µM
TGI (K-562 leukemia): 3.23 µM
TGI (BT-549 breast): 8.19 µM
TGI (SN12C renal): 3.62 µM
TGI (CAKI-1 renal): 5.65 µM
TGI (OVCAR-4 ovarian): 8.75 µM
TGI (SF-268 CNS): 8.92 µM
TGI (UACC-257 melanoma): 5.24 µM
TGI (SNB-75 CNS): 3.52 µM
TGI (HCT-116 colon): > 100 µM
TGI (NCI-H460 lung): 3.34 µM
TGI (HT29 colon): 3.17 µM
TGI (SW-620 colon): 4.45 µM
TGI (RXF 393 renal): 3.14 µM
TGI (PC-3 prostate): 4.93 µM
TGI (TK-10 renal): 5.45 µM
TGI (SK-OV-3 ovarian): 20.1 µM
TGI (HL-60(TB) leukemia): 7.63 µM
TGI (MCF7 breast): 3.29 µM
TGI (SF-295 CNS): 3.62 µM
TGI (OVCAR-3 ovarian): 5.33 µM
TGI (SNB-19 CNS): 8.75 µM
TGI (HOP-62 NSCLC): 8.56 µM

C=C(C)[C@@H]1CC[C@]2(C(=O)OCCOCCOCC[P+](c3ccccc3)(c3ccccc3)c3ccccc3)CC[C@]3(C)[C@H](CC[C@@H]4[C@@]5(C)CC[C@H](OC(=O)C(Cl)Cl)C(C)(C)[C@@H]5CC[C@]43C)[C@@H]12
GI50 (NCI/ADR-RES ovarian): 1.54 µM
TGI (NCI/ADR-RES ovarian): 9 µM
GI50 (A498 renal): 0.225 µM
TGI (A498 renal): 0.734 µM
GI50 (HS 578T breast): 0.317 µM
TGI (HS 578T breast): 1.88 µM

Nc1nc(SC2CCCCC2)nc2c1ncn2C1OC(CO)C(O)C1O (stereo not drawn)
GI50 (NCI-H522 lung): 96.6 µg/mL
GI50 (SNB-75 CNS): 69.8 µg/mL (≈ 183 µM)
GI50 (M14 melanoma): 14.8 µg/mL
